How the values were obtained:
[1] = Active agent loading into non-lamellar particle dispersion; format: physicochemical; details: active agent relative to mass of total amphiphile, DGMO/GDO/Pluronic F127 54/36/10 dispersion; for % loading by equilibration: 37° C., three days; for % loading by heat treatment: autoclavation 125° C., 20 minutes
Experimental: A composition comprising DGMO (54% by weight), GDO (36% by weight) and Pluronic® F127 (10% by weight) was dispersed in 99 times its weight in water by the method of Example 2.1.
The dispersion was divided into samples and loaded with each of the active agents shown below by each of two techniques: • i) A saturated solution of active was equilibrated with the particles in dispersion at 37° C. for three days by gentle stirring on a rotating table. • ii) The samples were dispersed in a solution of excess active agent and heat treated by autoclavation at 125° C. for 20 minutes and were allowed to temperature equilibrate at 37° C. for at least one hour.
The following loadings were achieved, expressed as percentage active agent incorporated relative to the mass of total amphiphile.

[2] = Oral bioavailability of octreotide in rats (plasma OCT, competitive immunoassay); format: in vivo; details: rat, 0.2 mg/kg, read-out: Absolute bioavailability (F)
Experimental: On the first day of the experiment, the rats were prepared by inserting a silicon catheter (OD approx. 1 mm) in the jugular vein under isoflurane anaesthesia. The catheter was tunnelled under the skin and exteriorised between the scapulae. After surgery the rats were allowed 48 hours of recovery before dosing. The catheter was rinsed with 0.9% NaCl containing 1 mM EDTA, every morning during the recovery period.
In the morning, after approximately 16 hours of fasting (water was accessible), the animals were dosed and blood collected. The animals were allowed free access to water after dosing, but had no access to food. After the last sampling, all animals were sacrificed.
The rats were dosed intravenously through the venous catheter or by gavage by a plastic ball-tipped gavage tube. […]
The content of OCT in all plasma samples was measured by a competitive immunoassay. […] The fraction of antibody remaining in solution is removed, and the fraction bound to the immobilized peptide is quantified, the signal obtained being inversely proportional to the concentration of OCT in the sample. […]
Dose-corrected absolute bioavailability of OCT in the oral non-lamellar formulation was calculated as: Availability (F)=(AUCoral×DoseIV)/(AUCIV×Doseoral)×100 20.6—Results

SMILES | % loading by equilibration [1] [%] | % loading by heat treatment [1] [%] | bioavailability [2] [%]
CC(=O)[C@H]1CC[C@H]2[C@@H]3CCC4=CC(=O)CC[C@]4(C)[C@H]3CC[C@]12C [Progesterone] | 2.99 | 12.65 | –
C[C@]12CC[C@@H]3c4ccc(O)cc4C[C@@H](CCCCCCCCC[S+]([O-])CCCC(F)(F)C(F)(F)F)[C@H]3[C@@H]1CC[C@@H]2O (stereo partly shown) [Fulvestrant] | 0.6 | 3.76 | –
C[C@@H](O)[C@@H]1NC(=O)[C@H](CCCCN)NC(=O)[C@@H](Cc2c[nH]c3ccccc23)NC(=O)[C@H](Cc2ccccc2)NC(=O)[C@@H](NC(=O)[C@H](N)Cc2ccccc2)CSSC[C@@H](C(=O)N[C@H](CO)[C@@H](C)O)NC1=O [OCT in a saline solution, Octreotide] | – | – | ~0.04
CC(=O)N1CCN(c2ccc(OCC3COC(Cn4ccnc4)(c4ccc(Cl)cc4Cl)O3)cc2)CC1 (stereo not shown) [Ketoconazole] | 3.49 | 19.25 | –

— US8541400B2, “Compositions forming non-lamellar dispersions” (Camurus AB, priority 2004, dated 2013)
